Results taken from the kinase profiling compilation of Christmann-Franck et al. (2016).

How the values were obtained:
Assay in all cases: radiometric filter-binding kinase assay, Kinase HotSpot
Details in all cases: compound 0.5 µM; ATP 10 µM
[1] = target: ABL2 (human) (UniProt P42684)
[2] = target: ACVR1B (human) (UniProt P36896)
[3] = target: ADRBK2 (human) (UniProt P35626)
[4] = target: AURKA (human) (UniProt O14965)
[5] = target: BRSK1 (human) (UniProt Q8TDC3)
[6] = target: CDC42BPB (human) (UniProt Q9Y5S2)
[7] = target: CDK2 CCNA2 (human) (UniProt P24941+P20248)
[8] = target: CDK9 CCNT1 (human) (UniProt P50750+O60563)
[9] = target: CSNK1A1 (human) (UniProt P48729)
[10] = target: CSNK1E (human) (UniProt P49674)
[11] = target: CSNK1G3 (human) (UniProt Q9Y6M4)
[12] = target: EPHA4 (human) (UniProt P54764)
[13] = target: EPHA8 (human) (UniProt P29322)
[14] = target: EPHB3 (human) (UniProt P54753)
[15] = target: FLT1 (human) (UniProt P17948)
[16] = target: GRK4 (human) (UniProt P32298)
GRK4 (human), sequence (P32298 whole entry, looked up): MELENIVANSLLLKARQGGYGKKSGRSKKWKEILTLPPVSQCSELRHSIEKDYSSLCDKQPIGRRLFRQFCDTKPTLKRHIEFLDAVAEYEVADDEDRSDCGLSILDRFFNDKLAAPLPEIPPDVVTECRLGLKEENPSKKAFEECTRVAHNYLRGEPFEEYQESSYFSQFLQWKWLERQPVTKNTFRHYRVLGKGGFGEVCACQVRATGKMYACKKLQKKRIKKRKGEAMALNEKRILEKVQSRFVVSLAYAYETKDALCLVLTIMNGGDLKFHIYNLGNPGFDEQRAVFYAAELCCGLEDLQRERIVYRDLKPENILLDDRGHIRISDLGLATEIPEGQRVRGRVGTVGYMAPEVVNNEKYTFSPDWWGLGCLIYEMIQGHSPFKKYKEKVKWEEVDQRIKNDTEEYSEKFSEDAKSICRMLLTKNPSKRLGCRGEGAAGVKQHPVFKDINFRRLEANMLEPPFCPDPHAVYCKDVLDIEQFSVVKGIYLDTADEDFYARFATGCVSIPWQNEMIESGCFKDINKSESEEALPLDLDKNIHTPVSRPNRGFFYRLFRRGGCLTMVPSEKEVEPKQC

[17] = target: GRK6 (human) (UniProt P43250)
[18] = target: HIPK2 (human) (UniProt Q9H2X6)
[19] = target: JAK3 JH1 JH2 (human) (UniProt P52333)
[20] = target: KDR (human) (UniProt P35968)
[21] = target: MAP3K8 (human) (UniProt P41279)
[22] = target: MAPK9 (human) (UniProt P45984)
[23] = target: MAPKAPK5 (human) (UniProt Q8IW41)
[24] = target: MARK2 (human) (UniProt Q7KZI7)
[25] = target: MERTK (human) (UniProt Q12866)
[26] = target: MET (human) (UniProt P08581)
[27] = target: MYLK (human) (UniProt Q15746)
MYLK (human), sequence (Q15746 whole entry, looked up): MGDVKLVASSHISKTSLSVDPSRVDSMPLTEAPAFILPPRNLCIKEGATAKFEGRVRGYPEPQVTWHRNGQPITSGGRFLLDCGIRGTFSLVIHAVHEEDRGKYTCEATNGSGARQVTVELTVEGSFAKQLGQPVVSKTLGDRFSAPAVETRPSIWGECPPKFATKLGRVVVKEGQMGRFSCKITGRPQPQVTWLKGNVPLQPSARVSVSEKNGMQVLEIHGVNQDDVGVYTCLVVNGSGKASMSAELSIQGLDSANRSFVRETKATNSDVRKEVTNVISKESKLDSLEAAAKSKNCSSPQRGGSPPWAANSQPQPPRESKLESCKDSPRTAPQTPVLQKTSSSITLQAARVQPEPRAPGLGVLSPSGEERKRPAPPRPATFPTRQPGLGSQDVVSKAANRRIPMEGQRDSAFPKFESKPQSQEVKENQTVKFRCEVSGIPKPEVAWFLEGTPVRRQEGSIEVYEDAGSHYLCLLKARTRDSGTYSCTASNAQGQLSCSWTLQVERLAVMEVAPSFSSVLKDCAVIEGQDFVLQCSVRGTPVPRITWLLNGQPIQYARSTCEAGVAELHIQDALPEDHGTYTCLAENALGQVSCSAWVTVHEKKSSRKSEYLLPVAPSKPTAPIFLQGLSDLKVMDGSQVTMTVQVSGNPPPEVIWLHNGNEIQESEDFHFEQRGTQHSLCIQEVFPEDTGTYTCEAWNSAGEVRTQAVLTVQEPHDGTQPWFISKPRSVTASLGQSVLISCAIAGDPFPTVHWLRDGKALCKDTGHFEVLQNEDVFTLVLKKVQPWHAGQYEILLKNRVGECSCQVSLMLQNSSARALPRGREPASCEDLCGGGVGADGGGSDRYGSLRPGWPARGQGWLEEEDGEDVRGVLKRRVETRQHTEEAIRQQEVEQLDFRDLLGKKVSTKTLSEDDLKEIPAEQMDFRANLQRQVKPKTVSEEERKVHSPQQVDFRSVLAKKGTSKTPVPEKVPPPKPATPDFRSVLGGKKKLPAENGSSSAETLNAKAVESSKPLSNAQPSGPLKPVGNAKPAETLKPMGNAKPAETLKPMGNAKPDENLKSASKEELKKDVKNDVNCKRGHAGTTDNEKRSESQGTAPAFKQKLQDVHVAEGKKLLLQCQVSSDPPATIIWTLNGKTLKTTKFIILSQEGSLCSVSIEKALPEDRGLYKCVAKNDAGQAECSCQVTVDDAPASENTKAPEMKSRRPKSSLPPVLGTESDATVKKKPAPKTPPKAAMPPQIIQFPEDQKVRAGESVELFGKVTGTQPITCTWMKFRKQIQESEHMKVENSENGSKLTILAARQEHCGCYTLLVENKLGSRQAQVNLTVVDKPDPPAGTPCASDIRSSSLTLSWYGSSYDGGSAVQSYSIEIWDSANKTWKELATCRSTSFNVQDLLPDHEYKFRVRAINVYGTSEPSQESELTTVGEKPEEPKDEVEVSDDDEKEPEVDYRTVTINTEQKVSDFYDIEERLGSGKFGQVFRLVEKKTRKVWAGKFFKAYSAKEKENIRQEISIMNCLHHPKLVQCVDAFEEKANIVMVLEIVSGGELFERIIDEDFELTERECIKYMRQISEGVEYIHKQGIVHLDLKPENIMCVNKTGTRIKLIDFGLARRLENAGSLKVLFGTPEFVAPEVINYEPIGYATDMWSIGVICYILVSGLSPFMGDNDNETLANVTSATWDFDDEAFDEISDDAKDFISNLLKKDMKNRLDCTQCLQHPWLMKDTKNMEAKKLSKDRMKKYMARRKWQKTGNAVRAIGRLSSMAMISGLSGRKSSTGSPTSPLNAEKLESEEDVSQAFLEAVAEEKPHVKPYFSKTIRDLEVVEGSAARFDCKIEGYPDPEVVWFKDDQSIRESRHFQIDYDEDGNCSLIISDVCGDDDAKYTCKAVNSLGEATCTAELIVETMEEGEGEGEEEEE

[28] = target: NEK3 (human) (UniProt P51956)
NEK3 (human), sequence (P51956 whole entry, looked up): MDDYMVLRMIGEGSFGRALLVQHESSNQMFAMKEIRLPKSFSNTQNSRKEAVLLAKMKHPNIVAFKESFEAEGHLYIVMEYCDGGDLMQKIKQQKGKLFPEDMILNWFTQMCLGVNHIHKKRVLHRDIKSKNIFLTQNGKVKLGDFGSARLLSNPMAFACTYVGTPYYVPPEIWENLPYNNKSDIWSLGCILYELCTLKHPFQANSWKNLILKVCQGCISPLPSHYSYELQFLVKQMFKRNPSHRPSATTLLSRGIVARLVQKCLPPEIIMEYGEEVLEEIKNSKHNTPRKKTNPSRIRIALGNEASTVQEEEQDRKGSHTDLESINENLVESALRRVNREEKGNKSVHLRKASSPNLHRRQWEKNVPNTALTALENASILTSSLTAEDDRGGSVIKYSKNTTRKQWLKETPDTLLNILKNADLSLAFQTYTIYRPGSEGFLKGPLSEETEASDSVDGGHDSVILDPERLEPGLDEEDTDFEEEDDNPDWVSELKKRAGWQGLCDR

[29] = target: NLK (human) (UniProt Q9UBE8)
[30] = target: NTRK1 (human) (UniProt P04629)
[31] = target: NUAK1 (human) (UniProt O60285)
[32] = target: NUAK2 (human) (UniProt Q9H093)
[33] = target: PHKG2 (human) (UniProt P15735)
[34] = target: PIM2 (human) (UniProt Q9P1W9)
PIM2 (human), sequence (Q9P1W9 whole entry, looked up): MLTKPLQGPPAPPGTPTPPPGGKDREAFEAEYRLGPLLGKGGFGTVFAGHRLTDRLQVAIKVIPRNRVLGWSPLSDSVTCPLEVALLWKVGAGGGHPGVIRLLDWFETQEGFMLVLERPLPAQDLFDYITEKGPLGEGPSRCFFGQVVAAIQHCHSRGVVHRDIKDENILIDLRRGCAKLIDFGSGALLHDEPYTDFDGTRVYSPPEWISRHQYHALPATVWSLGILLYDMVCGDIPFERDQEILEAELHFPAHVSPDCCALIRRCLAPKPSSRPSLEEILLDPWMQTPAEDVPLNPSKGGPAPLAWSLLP

[35] = target: PRKCA (human) (UniProt P17252)
[36] = target: RIPK2 (human) (UniProt O43353)
[37] = target: RPS6KA1 KD1 KD2 (human) (UniProt Q15418)
[38] = target: STK11 (human) (UniProt Q15831)
[39] = target: STK3 (human) (UniProt Q13188)
STK3 (human), sequence (Q13188 whole entry, looked up): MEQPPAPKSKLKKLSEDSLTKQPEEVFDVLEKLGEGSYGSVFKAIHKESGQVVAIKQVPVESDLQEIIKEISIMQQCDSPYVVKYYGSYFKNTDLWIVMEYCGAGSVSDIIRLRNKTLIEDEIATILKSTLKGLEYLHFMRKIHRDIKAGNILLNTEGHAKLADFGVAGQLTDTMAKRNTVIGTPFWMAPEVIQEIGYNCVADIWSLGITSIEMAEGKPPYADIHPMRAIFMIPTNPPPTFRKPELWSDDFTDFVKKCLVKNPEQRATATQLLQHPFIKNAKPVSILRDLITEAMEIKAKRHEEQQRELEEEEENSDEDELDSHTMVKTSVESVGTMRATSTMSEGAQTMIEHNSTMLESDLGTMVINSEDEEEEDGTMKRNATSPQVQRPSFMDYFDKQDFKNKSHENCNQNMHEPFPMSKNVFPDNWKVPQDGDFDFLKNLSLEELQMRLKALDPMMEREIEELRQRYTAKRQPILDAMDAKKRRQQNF

[40] = target: STK33 (human) (UniProt Q9BYT3)
[41] = target: TAOK2 (human) (UniProt Q9UL54)
[42] = target: TXK (human) (UniProt P42681)

ABL2 (human), sequence (P42684 whole entry, looked up): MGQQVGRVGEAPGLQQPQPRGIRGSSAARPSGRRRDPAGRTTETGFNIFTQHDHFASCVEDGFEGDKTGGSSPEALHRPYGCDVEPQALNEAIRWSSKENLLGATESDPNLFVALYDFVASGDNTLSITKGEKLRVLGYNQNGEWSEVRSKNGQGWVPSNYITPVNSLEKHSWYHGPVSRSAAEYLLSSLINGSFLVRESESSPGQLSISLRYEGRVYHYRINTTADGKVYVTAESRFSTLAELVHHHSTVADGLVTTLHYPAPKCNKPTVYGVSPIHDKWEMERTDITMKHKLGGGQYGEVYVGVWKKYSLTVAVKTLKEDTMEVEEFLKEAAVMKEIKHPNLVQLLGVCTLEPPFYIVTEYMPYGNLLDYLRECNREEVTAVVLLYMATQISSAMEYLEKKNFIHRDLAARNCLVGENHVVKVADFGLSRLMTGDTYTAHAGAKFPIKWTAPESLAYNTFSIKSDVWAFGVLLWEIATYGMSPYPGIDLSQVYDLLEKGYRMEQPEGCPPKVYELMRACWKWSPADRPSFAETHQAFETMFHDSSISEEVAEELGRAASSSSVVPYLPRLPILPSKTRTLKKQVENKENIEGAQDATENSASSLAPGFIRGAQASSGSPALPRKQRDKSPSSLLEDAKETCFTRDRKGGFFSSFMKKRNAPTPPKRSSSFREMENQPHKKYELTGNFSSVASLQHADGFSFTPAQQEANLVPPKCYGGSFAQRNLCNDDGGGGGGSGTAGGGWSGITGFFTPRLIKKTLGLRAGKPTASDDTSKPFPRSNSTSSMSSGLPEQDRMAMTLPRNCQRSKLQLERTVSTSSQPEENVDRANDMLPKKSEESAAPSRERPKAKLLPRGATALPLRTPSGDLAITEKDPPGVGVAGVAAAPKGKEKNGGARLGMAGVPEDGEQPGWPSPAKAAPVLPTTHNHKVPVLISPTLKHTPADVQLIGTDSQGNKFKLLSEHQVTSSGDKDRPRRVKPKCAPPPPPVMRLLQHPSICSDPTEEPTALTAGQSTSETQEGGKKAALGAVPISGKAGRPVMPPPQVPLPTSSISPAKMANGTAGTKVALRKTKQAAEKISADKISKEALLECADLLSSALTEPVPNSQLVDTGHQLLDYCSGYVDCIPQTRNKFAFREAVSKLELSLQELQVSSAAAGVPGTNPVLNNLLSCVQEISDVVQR

Compound: Oc1ccc(-c2nc(-c3ccc(F)cc3)c(-c3ccncc3)[nH]2)cc1
- residual activity [1]: 91.1%
- residual activity [2]: 136%
- residual activity [3]: 99.3%
- residual activity [4]: 96.1%
- residual activity [5]: 101%
- residual activity [6]: 103%
- residual activity [7]: 101%
- residual activity [8]: 83.4%
- residual activity [9]: 62.3%
- residual activity [10]: 32.7%
- residual activity [11]: 102%
- residual activity [12]: 96.2%
- residual activity [13]: 93.6%
- residual activity [14]: 97.7%
- residual activity [15]: 90.6%
- residual activity [16]: 98.5%
- residual activity [17]: 99.7%
- residual activity [18]: 102%
- residual activity [19]: 95.8%
- residual activity [20]: 99.9%
- residual activity [21]: 96.6%
- residual activity [22]: 93.4%
- residual activity [23]: 102%
- residual activity [24]: 99%
- residual activity [25]: 85.2%
- residual activity [26]: 94.4%
- residual activity [27]: 106%
- residual activity [28]: 99.3%
- residual activity [29]: 46.1%
- residual activity [30]: 105%
- residual activity [31]: 97.3%
- residual activity [32]: 128%
- residual activity [33]: 94.3%
- residual activity [34]: 106%
- residual activity [35]: 102%
- residual activity [36]: 46.8%
- residual activity [37]: 98.1%
- residual activity [38]: 93.1%
- residual activity [39]: 105%
- residual activity [40]: 103%
- residual activity [41]: 94.7%
- residual activity [42]: 78.5%

Compound: Cc1ccc(NC(=O)c2ccc(CN3CCN(C)CC3)cc2)cc1Nc1nc(-c2cccnc2)cs1
- residual activity [1]: 57.7%
- residual activity [2]: 99.8%
- residual activity [3]: 100%
- residual activity [4]: 105%
- residual activity [5]: 102%
- residual activity [6]: 98.1%
- residual activity [7]: 94.7%
- residual activity [8]: 99.2%
- residual activity [9]: 98.5%
- residual activity [10]: 98.8%
- residual activity [11]: 96.8%
- residual activity [12]: 105%
- residual activity [13]: 93.1%
- residual activity [14]: 80.9%
- residual activity [15]: 96.4%
- residual activity [16]: 108%
- residual activity [17]: 104%
- residual activity [18]: 90.8%
- residual activity [19]: 93.7%
- residual activity [20]: 106%
- residual activity [21]: 91.5%
- residual activity [22]: 110%
- residual activity [23]: 103%
- residual activity [24]: 104%
- residual activity [25]: 109%
- residual activity [26]: 104%
- residual activity [27]: 96.2%
- residual activity [28]: 99.4%
- residual activity [29]: 106%
- residual activity [30]: 97.1%
- residual activity [31]: 110%
- residual activity [32]: 98.4%
- residual activity [33]: 69.1%
- residual activity [34]: 118%
- residual activity [35]: 110%
- residual activity [36]: 108%
- residual activity [37]: 97.2%
- residual activity [38]: 102%
- residual activity [39]: 94.4%
- residual activity [40]: 91.1%
- residual activity [41]: 91.6%
- residual activity [42]: 101%

Compound: O=c1cc(N2CCNCC2)oc2c(-c3ccccc3)cccc12
- residual activity [1]: 99.5%
- residual activity [2]: 105%
- residual activity [3]: 97.4%
- residual activity [4]: 105%
- residual activity [5]: 95.3%
- residual activity [6]: 97.5%
- residual activity [7]: 104%
- residual activity [8]: 98.8%
- residual activity [9]: 104%
- residual activity [10]: 101%
- residual activity [11]: 102%
- residual activity [12]: 100%
- residual activity [13]: 98.1%
- residual activity [14]: 94.5%
- residual activity [15]: 86.6%
- residual activity [16]: 106%
- residual activity [17]: 89.6%
- residual activity [18]: 108%
- residual activity [19]: 96.9%
- residual activity [20]: 99.8%
- residual activity [21]: 95.2%
- residual activity [22]: 90.4%
- residual activity [23]: 104%
- residual activity [24]: 105%
- residual activity [25]: 98.3%
- residual activity [26]: 107%
- residual activity [27]: 105%
- residual activity [28]: 106%
- residual activity [29]: 98.8%
- residual activity [30]: 96.4%
- residual activity [31]: 95.5%
- residual activity [32]: 89.2%
- residual activity [33]: 96.9%
- residual activity [34]: 121%
- residual activity [35]: 99.1%
- residual activity [36]: 82.9%
- residual activity [37]: 104%
- residual activity [38]: 101%
- residual activity [39]: 102%
- residual activity [40]: 86.1%
- residual activity [41]: 98.3%
- residual activity [42]: 95.4%
